Data set [1] deals with M. tuberculosis DXR (MtDXR) (Mycobacterium tuberculosis, UniProt P9WNS1). The class given is biochemical. The settings on record: for Ki: read-out: MtDXR Ki; for times less active against MtDXR than 1 and 2: compared with parent compounds 1 and 2.
Data set [2] addresses E. coli DXR (EcDXR) (Escherichia coli, UniProt P45568). In words: biochemical. The data set is classed as biochemical.
In data set [3] the test system is P. falciparum. Conditions: read-out: EC50 against P. falciparum; ref 8j; cited from earlier work.
Data set [4] concerns EcDXR. The settings on record: read-out: Km of substrate for EcDXR; cited from earlier work.
Data set [5] deals with MtDXR. The settings on record: read-out: Km of substrate for MtDXR; ref 2d; cited from earlier work.
Data set [6] concerns DXR. The settings on record: read-out: DXR IC50; ref 9b; cited from earlier work.
For data set [7] the following is noted: background statement, no reference given; cited from earlier work.
Data set [8] concerns MtDXR. Conditions: read-out: MtDXR IC50; using […] of Mn2+; cited from earlier work.

Structures are written as SMILES. Where “and” joins values, the source holds several entries; their conditions need not be identical. Equal values may be shown once. Where a name gives a salt, the structure may show the parent alone. Read-outs that look alike come from different tables or passages of the source. A value given as a limit tells only on which side of the number the result lay.

As a reminder, the Ki is a dissociation constant, usually derived from enzyme kinetics or from competition with a known ligand. What is called EC50 is the concentration giving half of the maximal effect. By Km is commonly meant the concentration of substrate that gives half-maximal velocity. Usually IC50 stands for the concentration at which inhibition is half-maximal.

Chain of M. tuberculosis DXR (MtDXR) (P9WNS1 whole entry, looked up): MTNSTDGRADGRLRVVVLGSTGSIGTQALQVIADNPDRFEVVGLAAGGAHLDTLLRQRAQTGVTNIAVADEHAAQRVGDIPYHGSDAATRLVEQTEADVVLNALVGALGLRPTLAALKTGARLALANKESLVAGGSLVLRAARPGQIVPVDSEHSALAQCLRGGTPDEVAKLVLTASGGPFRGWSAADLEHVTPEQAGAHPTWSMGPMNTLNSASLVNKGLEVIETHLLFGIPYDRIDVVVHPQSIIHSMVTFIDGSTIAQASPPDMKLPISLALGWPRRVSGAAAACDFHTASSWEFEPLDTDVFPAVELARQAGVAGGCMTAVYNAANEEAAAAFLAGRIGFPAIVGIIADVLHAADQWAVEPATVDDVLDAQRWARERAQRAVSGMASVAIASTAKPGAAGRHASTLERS
Chain of E. coli DXR (EcDXR) (P45568 whole entry): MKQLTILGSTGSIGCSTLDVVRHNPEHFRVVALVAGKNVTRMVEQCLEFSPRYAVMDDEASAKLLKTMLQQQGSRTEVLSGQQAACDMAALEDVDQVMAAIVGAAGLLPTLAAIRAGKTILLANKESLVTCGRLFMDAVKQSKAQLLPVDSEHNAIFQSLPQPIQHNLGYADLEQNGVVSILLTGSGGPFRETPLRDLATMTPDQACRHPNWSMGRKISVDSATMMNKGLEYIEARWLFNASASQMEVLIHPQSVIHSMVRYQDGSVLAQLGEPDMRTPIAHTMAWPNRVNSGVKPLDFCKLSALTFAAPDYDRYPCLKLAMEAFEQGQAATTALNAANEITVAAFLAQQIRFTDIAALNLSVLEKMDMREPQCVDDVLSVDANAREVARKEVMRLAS

In the case of `O=P(O)(O)Cc1ccc(-c2ccc(Cl)cc2)cn1` [Compound 35, 5-(4-Chlorophenyl)pyridin-2-ylmethylphosphonic acid disodium salt], the inhibition constant (Ki) in data set [1] is above 100 µM.

As to `O=P(O)(O)C(Nc1ccc(Cl)cn1)P(=O)(O)O` [Compound 6, reference compound], in data set [1], the “times weaker binding / less active against MtDXR than EcDXR” value (shortened to “times weaker binding / less active”) is given as above 5 × and the Ki is above 100 µM.

Take `O=P(O)(O)CCc1ccccc1` [Compound 20, 2-Phenylethylphosphonic acid disodium salt]: the values for the inhibitory constant (Ki) in data set [1], in data set [2] and in data set [2] (read-out: EcDXR Ki) were above 100 µM, above 49.7 µM and above 100 µM, respectively.

Turning to `O=P(O)(O)Cc1ccc(OCc2ccccc2)cn1` [Compound 31, (5-Benzyloxypyridin-2-yl)methylphosphonic acid disodium salt], the results for the Ki in data set [1], in data set [2] and in data set [2] (read-out: EcDXR Ki) were above 100 µM, above 49.7 µM and above 100 µM, respectively. Besides, the “inhibitory activity against EcDXR (in words)” value in data set [2] was “inactive”.

`O=C(O)Cc1ccc(-c2ccccc2)cn1` [Compound 46, (5-Phenylpyridin-2-yl)acetic acid] gave an inhibition constant Ki in data set [2] above 49.7 µM.

Regarding `O=P(O)(O)Cc1ccc(-c2ccccc2)cn1` [Compound 9, 5-phenylpyridin-2-ylmethylphosphonic acid], the “affinity loss to MtDXR compared to EcDXR” value in data set [1] (Ki MtDXR vs Ki EcDXR) worked out at 7 fold. For the same compound, the “times as potent as 8 against EcDXR” value in data set [2] is on record as 5 ×.

Regarding `COc1cccc(-c2ccc(CP(=O)(O)O)nc2)c1` [Compound 37, 5-(3-Methoxyphenyl)pyridin-2-ylmethylphosphonic acid disodium salt], the inhibition constant Ki in data set [1] is above 100 µM.

As to `O=P(O)(O)Cc1ccc(O)cn1` [Compound 30, (5-Hydroxylpyridin-2-yl)methylphosphonic acid disodium salt], in data set [2] (Ki ratio to compound 8), the “times as potent as 8 against EcDXR” value is given as ~ 3 ×.

Consider `O=P(O)(O)Cc1ccc(Cl)c(Cl)c1` [Compound 21], for which the “inhibitory activity against MtDXR (in words)” value in data set [1] is “essentially no activity”. Besides, the Ki is above 100 µM in data set [1], above 49.7 µM in data set [2] and above 100 µM in data set [2] (read-out: EcDXR Ki). In addition, the “inhibitory activity against EcDXR (in words)” value in data set [2] (up to 100 μM) was “essentially no activity”.

With `O=c1ccc(CP(=O)(O)O)cn1O` [Compound 24, 5-(1-Hydroxy-pyridin-2-one)methylphosphonic acid disodium salt], the Ki in data set [2] was above 49.7 µM. Also, the “inhibitory activity against EcDXR (in words)” value in data set [2] (up to 100 μM) was “essentially inactive”.

Turning to `O=C(Cc1ccc(-c2ccccc2)cn1)NO` [Compound 47, N-hydroxy-(5-phenylpyridin-2-yl)acetamide], the Ki in data set [2] is above 49.7 µM.

Consider `O=C(Cc1ccccn1)NO` [Compound 44, N-hydroxy-(pyridin-2-yl)acetamide], for which, in data set [2], the Ki was above 49.7 µM.

On to `O=P(O)(O)c1ccccc1` [Compound 18, Phenylphosphonic acid disodium salt], for which the Ki in data set [1] was above 100 µM; in data set [2] it was above 49.7 µM; in data set [2] (read-out: EcDXR Ki) it was above 100 µM.

In the case of `O=P(O)(O)CCCc1ccccn1` [Compound 13, 3-(Pyridin-2-yl)propylphosphonic acid disodium salt], the Ki in data set [1] was above 100 µM. Besides, the “times less potent than 8 against EcDXR” value in data set [2] (Ki ratio to compound 8) is on record as around 4 ×.

On to `O=P(O)(O)Cc1cccnc1` [Compound 14], for which the Ki in data set [1] was above 100 µM.

For the compound `Cc1ccc(-c2ccc(CP(=O)(O)O)nc2)cc1` [Compound 36, 5-(4-Methylphenyl)pyridin-2-ylmethylphosphonic acid disodium salt], the inhibition constant Ki in data set [1] is above 100 µM.

As to `O=C(O)c1ccccn1` [Compound 39], the Ki in data set [1] was above 100 µM; in data set [2] it was above 49.7 µM; in data set [2] (read-out: EcDXR Ki), above 100 µM.

As for `O=P(O)(O)c1ccccn1` [Compound 11, Pyridin-2-ylphosphonic acid disodium salt], the inhibition constant (Ki) is above 100 µM in data set [1], above 49.7 µM in data set [2] and above 100 µM in data set [2] (read-out: EcDXR Ki). In addition, the “inhibitory activity against EcDXR (in words)” value in data set [2] (up to 100 μM) was “essentially no activity”.

`O=P(O)(O)Cc1cccc(O)c1O` [Compound 23]: the Ki in data set [1] is above 100 µM; in data set [2], above 49.7 µM; in data set [2] (read-out: EcDXR Ki), above 100 µM. The “inhibitory activity against EcDXR (in words)” value in data set [2] (up to 100 μM) was “no inhibitory activity”.

With `CC(=O)N(O)CCCP(=O)(O)O` [Compound 2, FR900098, reference compound], the “times weaker binding / less active” value in data set [1] was ~ 6 ×.

As to `O=P(O)(O)CCc1ccccn1` [Compound 12, 2-(Pyridin-2-yl)ethylphosphonic acid disodium salt], the Ki in data set [1] is above 100 µM. Moreover, in data set [2] (Ki ratio to compound 8), the “times less potent than 8 against EcDXR” value is ~ 8 ×.

Turning to `O=c1cccc(CCP(=O)(O)O)[nH]1` [Compound 25, 2-(Pyridin-2-one-6-yl)ethylphosphonic acid disodium salt], in data set [2], the Ki is above 49.7 µM. Besides, in data set [2] (up to 100 μM), the “inhibitory activity against EcDXR (in words)” value was “essentially inactive”.

Turning to `O=P(O)(O)Cc1cnccn1` [Compound 16, Pyrazin-2-ylmethylphosphonic acid disodium salt], the inhibition constant (Ki) in data set [1] is above 100 µM.

Regarding `O=P(O)(O)Cc1ccccc1` [Compound 19, Benzylphosphonic acid disodium salt], the results for the inhibitory constant (Ki) in data set [1], in data set [2] and in data set [2] (read-out: EcDXR Ki) were above 100 µM, above 49.7 µM and above 100 µM, respectively.

Take `O=C(O)Cc1ccncc1` [Compound 42]: the inhibition constant Ki is above 100 µM in data set [1], above 49.7 µM in data set [2] and above 100 µM in data set [2] (read-out: EcDXR Ki).

`O=CN(O)CCC(c1ccc(Cl)c(Cl)c1)P(=O)(O)O` (stereo not shown) [Compound 3, reference compound]: in data set [3], the EC50 is 0.09 µM. Moreover, the “affinity loss to MtDXR compared to EcDXR” value in data set [1] (Ki MtDXR vs Ki EcDXR) was found to be 21 fold. In addition, in data set [1], the “times less active against MtDXR than 1 and 2” value is on record as ~ 10 ×.

As to `CC(=O)[C@@H](O)[C@H](O)COP(=O)(O)O` [DXP, 1-deoxy-D-xylulose-5-phosphate], the Km in data set [4] was 99 µM; in data set [5] it was 47.1 µM.

Take `O=P(O)(O)CCc1ccccc1O` [Compound 22, 2-(2-Hydroxyphenyl)ethylphosphonic acid disodium salt]: the Ki is above 100 µM in data set [1], above 49.7 µM in data set [2] and above 100 µM in data set [2] (read-out: EcDXR Ki). The “inhibitory activity against EcDXR (in words)” value in data set [2] (up to 100 μM) is “no inhibitory activity”.

Take `O=S(=O)(O)Cc1ccc(-c2ccccc2)cn1` [Compound 48, 5-Phenylpyridin-2-ylmethanesulfonic acid sodium salt]: the inhibition constant (Ki) in data set [1] was above 100 µM; in data set [2] it was above 49.7 µM; in data set [2] (read-out: EcDXR Ki), above 100 µM.

`O=C(O)Cc1cccnc1` [Compound 41]: the figures for the inhibition constant Ki in data set [1], in data set [2] and in data set [2] (read-out: EcDXR Ki) were above 100 µM, above 49.7 µM and above 100 µM, respectively.

As to `CC(=O)N(O)CCC(c1ccc(Cl)c(Cl)c1)P(=O)(O)O` (stereo not shown) [Compound 4, reference compound], the concentration giving a half-maximal response (EC50) in data set [3] was 0.25 µM. Further, in data set [1] (Ki MtDXR vs Ki EcDXR), the “affinity loss to MtDXR compared to EcDXR” value was 42 fold. The “times less active against MtDXR than 1 and 2” value in data set [1] is ~ 10 × and 10 ×.

With `O=C(O)c1ccc(-c2ccccc2)cn1` [Compound 45, 5-Phenylpyridine-2-carboxylic acid], the inhibition constant (Ki) in data set [1] was above 100 µM; in data set [2], above 49.7 µM; in data set [2] (read-out: EcDXR Ki), above 100 µM.

As to `O=c1ccc(-c2ccccc2)cn1O` [Compound 7, reference compound], the “times weaker binding / less active” value in data set [1] (Ki MtDXR vs Ki EcDXR) came to 31 ×. The half-inhibitory concentration (IC50) in data set [6] was 1.4 µM.

For the compound `O=CN(O)CCCP(=O)(O)O` [Compound 1, Fosmidomycin], the EC50 in data set [3] was 1.1 µM. Further, the “times weaker binding / less active” value in data set [1] (Ki MtDXR vs Ki EcDXR) was ~ 5 × and 5 ×. Besides, in data set [7], the half-life in plasma was ~ 1 h and the oral availability result is on record as “poor oral availability”. Also, in data set [8], the concentration for half-maximal inhibition (IC50) is 0.08 µM.

In the case of `O=C(O)Cc1ccccn1` [Compound 40], the figures for the inhibitory constant (Ki) in data set [1], in data set [2] and in data set [2] (read-out: EcDXR Ki) were above 100 µM, above 49.7 µM and above 100 µM, respectively.

In the case of `O=P(O)(O)Cc1cc(-c2ccc(F)cc2)ccn1` [Compound 28, 4-(4-Fluorophenyl)pyridin-2-ylmethylphosphonic acid disodium salt], in data set [1], the Ki is above 100 µM.

`O=C(NO)c1ccccn1` [Compound 43, N-hydroxy-pyridine-2-carboxamide]: the Ki in data set [2] is above 49.7 µM.

As for `O=P(O)(O)Cc1cccc(-c2ccccc2)n1` [Compound 33, (6-Phenylpyridin-2-yl)methylphosphonic acid disodium salt], the Ki in data set [1] was above 100 µM.

Values taken from paper PMC3601441 (Journal of medicinal chemistry, 2011).
